Converted amounts (≈) assume the structure as drawn.
Legend:
[1] = molecular target: T1, human farnesoid X receptor (Homo sapiens, UniProt Q96RI1); experiment: FXR in vitro assays (farnesoid X receptor/ECREx7 co-transfection assay, TR-FRET assay), Table I; assay type: cell-based; conditions: for EC50: agonist activity, one or more of the in vitro assays, read-out: EC50; for Emax: read-out: % Efficacy
T1 construct: CMX-farnesoid X receptor (full length human farnesoid X receptor); expressed in transfected cells; host or cells: CV-1 African Green Monkey Kidney cells
T1 sequence (Q96RI1 1-472 isoform Q96RI1-2): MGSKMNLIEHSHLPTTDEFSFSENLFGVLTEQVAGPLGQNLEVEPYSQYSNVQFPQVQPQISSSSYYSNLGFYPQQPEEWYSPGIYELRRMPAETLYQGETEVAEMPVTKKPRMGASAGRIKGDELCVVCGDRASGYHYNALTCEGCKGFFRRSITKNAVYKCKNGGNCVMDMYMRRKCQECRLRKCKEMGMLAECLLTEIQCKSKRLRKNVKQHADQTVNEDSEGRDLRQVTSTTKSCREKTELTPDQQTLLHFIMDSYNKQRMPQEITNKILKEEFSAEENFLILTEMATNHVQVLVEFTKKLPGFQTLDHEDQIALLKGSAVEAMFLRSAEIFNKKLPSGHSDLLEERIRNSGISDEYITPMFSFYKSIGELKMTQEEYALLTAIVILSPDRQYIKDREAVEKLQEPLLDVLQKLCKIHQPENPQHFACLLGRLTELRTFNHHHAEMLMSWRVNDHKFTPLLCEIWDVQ
T1 sequence (P19793 1-462 partner): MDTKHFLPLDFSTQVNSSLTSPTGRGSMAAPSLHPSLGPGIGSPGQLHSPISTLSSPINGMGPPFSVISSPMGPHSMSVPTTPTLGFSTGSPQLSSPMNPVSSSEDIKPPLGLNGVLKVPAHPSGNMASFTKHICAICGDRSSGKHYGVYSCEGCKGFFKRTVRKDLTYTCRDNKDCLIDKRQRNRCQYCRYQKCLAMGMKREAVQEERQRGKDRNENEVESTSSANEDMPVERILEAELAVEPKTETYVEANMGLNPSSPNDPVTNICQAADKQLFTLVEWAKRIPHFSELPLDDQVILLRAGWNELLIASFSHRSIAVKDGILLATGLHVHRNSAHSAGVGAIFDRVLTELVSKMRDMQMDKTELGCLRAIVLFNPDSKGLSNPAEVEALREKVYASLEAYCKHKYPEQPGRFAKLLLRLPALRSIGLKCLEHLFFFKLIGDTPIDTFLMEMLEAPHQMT
How it was run: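 CV-1 monkey kidney cells transfected for an FXR/ECREx7 luciferase co-transfection reporter; luciferase read 18-20 h later in lysates. 8-point dose-response at ½-log spacing, 4 wells per point; EC50/IC50 from four-parameter Hill fit, averaged over at least 3 independent experiments.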

[2] = Kinetic solubility assay
Experimental: The kinetic solubility of test compounds in buffer was evaluated using a 96 well filtration plate format. A 500 μM assay solution in PBS, pH7.4 (or other assay buffer, as needed) was generated form a DMSO stock solution (up to 10 mM). Samples were transferred to a 96 Millipore MultiScreen HTS 96-well Filter plate (Cat# MSSLBPC10) mixed by shaking for 1.5 hours and processed by filtration prior to quantitation by HPLC-UV. Amiodarone and testosterone were used as reference controls.

[3] = pH 7.4, aqueous buffer, kinetic from dmso stock

Row | Compound | % Efficacy [1] | Kinetic Solubility μM ([2]; 500 μM assay solution in PBS, pH7.4 from DMSO stock, filtration, HPLC-UV) | EC50 [1] [nM] | Emax [1] [%] | solubility kinetic at 1.5 h [2, 3] [µM] | solubility kinetic [2, 3] [µM]
1 | 1-methyethyl 1,1-dimethyl- 3-({4-[4-(trifluoromethyl)- 1H-pyrazol-1- yl]phenyl}carbonyl)-1,2,3,6- tetrahydroazepino[4,5- b]indole-5-carboxylate [Example 158] | A (key: A=>100%; B=80-100%; C=60-80%; D=40-60%; E=<40%) | C (C=0.1-1.0 μM) |  |  |  | 
2 | CC(C)OC(=O)C1=CN(C(=O)C2CCN(C)CC2)CC(C)(C)c2c1[nH]c1ccccc21 [Example 6, 1-methylethyl 1,1-dimethyl-3-[(1-methylpiperidin-4-yl)carbonyl]-1,2,3,6-tetrahydroazepino[4,5-b]indole-5-carboxylate] |  |  | 1000 to 10000 | > 100 | 0.1 to 1 (≈ 0.0424 to 0.424 µg/mL) | 
3 | CC(C)OC(=O)C1=CN(C(=O)N2CCN(C)CC2)CC(C)(C)c2c1[nH]c1ccccc21 [Example 16] |  |  | 100 to 1000 | > 100 | 0.1 to 1 (≈ 0.0425 to 0.425 µg/mL) | 
4 | CCC(=O)N1C=C(C(=O)OC(C)C)c2[nH]c3ccccc3c2C(C)(C)C1 [Example 19] |  |  | 100 to 1000 | > 100 | > 10 | 
5 | CCCNC(=O)N1C=C(C(=O)OC(C)C)c2[nH]c3ccccc3c2C(C)(C)C1 [Example 23, 1-methylethyl 1,1-dimethyl-3-[(propylamino)carbonyl]-1,2,3,6-tetrahydroazepino[4,5-b]indole-5-carboxylate] |  |  | 100 to 1000 | > 100 | 1 to 10 (≈ 0.383 to 3.83 µg/mL) | 
6 | CCN1CCN(C(=O)N2C=C(C(=O)OC(C)C)c3[nH]c4ccccc4c3C(C)(C)C2)CC1 [Example 25, 1-methylethyl 3-[(4-ethylpiperazin-1-yl)carbonyl]-1,1-dimethyl-1,2,3,6-tetrahydroazepino[4,5-b]indole-5-carboxylate] |  |  | 10 to 100 | > 100 | > 10 | 
7 | CC(C)OC(=O)C1=CN(C(=O)N2CCNCC2)CC(C)(C)c2c1[nH]c1ccccc21 [Example 26, 1-methylethyl 1,1-dimethyl-3-(piperazin-1-ylcarbonyl)-1,2,3,6-tetrahydroazepino [4,5-b]indole-5-carboxylate] |  |  | 1000 to 10000 | > 100 | > 10 | 
8 | CC(C)OC(=O)C1=CN(C(=O)N2CCC(N3CCCC3)CC2)CC(C)(C)c2c1[nH]c1ccccc21 [Example 28, 1-methylethyl 1,1-dimethyl-3[(4-pyrrolidin-1-ylpiperidin-1-yl)carbonyl]-1,2,3,6-tetrahydroazepino[4,5-b]indole-5-carboxylate] |  |  | 1000 to 10000 | 80 to 100 | > 10 | 
9 | CC(C)OC(=O)C1=CN(C(=O)c2cccc(OCCN3CCCCC3)c2)CC(C)(C)c2c1[nH]c1ccccc21 [Example 159, 1-methylethyl 1,1-dimethyl-3-({3-[(2-piperidin-1-ylethyl)oxy]phenyl}carbonyl)-1,2,3,6-tetrahydroazepino[4,5-b]indole-5-carboxylate] |  |  |  |  | 1 to 10 (≈ 0.53 to 5.3 µg/mL) | 
10 | CCS(=O)(=O)N1CCN(Cc2cccc(C(=O)N3C=C(C(=O)OC(C)C)c4[nH]c5ccccc5c4C(C)(C)C3)c2)CC1 [Example 172, 1-methylethyl 3-[(3-{[4-(ethylsulfonyl)piperazin-1-yl]methyl}phenyl)carbonyl]-1,1-dimethyl-1,2,3,6-tetrahydroazepino[4,5-b]indole-5-carboxylate] |  |  | 100 to 1000 | > 100 |  | 
11 | CC(C)OC(=O)C1=CN(C(=O)c2cccc(CN3CCN(C(=O)C4CC4)CC3)c2)CC(C)(C)c2c1[nH]c1ccccc21 [Example 173, 1-methylethyl 3-[(3-{[4-(cyclopropylcarbonyl)piper-azin-1-yl]methyl}phenyl)carbonyl]-1,1-dimethyl-1,2,3,6-tetrahydroazepino[4,5-b]indole-5-carboxylate] |  |  | 100 to 1000 | > 100 |  | 
12 | CC(C)OC(=O)C1=CN(C(=O)c2cccc(CN3CCN(C(=O)C(C)C)CC3)c2)CC(C)(C)c2c1[nH]c1ccccc21 [Example 174, 1-methylethyl 1,1-dimethyl-3-[(3-{[4-(2-methylpropanoyl)piperazin-1-yl]methyl}phenyl)carbonyl]-1,2,3,6-tetrahydroazepino[4,5-b]indole-5-carboxylate] |  |  | 100 to 1000 | > 100 |  | 
13 | CC(C)OC(=O)C1=CN(C(=O)c2cccc(CN3CCN(C(=O)c4ccccc4)CC3)c2)CC(C)(C)c2c1[nH]c1ccccc21 [Example 175, 1-methylethyl 1,1-dimethyl-3-[(3-{[4-(phenylcarbonyl)piperazin-1-yl]methyl}phenyl)carbonyl]-1,2,3,6-tetrahydroazepino[4,5-b]indole-5-carboxylate] |  |  | 100 to 1000 | > 100 |  | 
14 | CC(C)OC(=O)C1=CN(C(=O)c2cccc(CN3CCCCCCC3)c2)CC(C)(C)c2c1[nH]c1ccccc21 [Example 176, 1-methylethyl 3-{[3-(azocan-1-ylmethyl)phenyl]carbonyl}-1,1-dimethyl-1,2,3,6-tetrahydroazepino[4,5-b]indole-5-carboxylate] |  |  | 100 to 1000 | > 100 |  | 
15 | CC(C)OC(=O)C1=CN(C(=O)c2cccc(CN3CCNCC3)c2)CC(C)(C)c2c1[nH]c1ccccc21 [Example 178, 1-methylethyl 1,1-dimethyl-3-{[3-(piperazin-1-ylmethyl)phenyl]carbonyl}-1,2,3,6-tetrahydroazepino[4,5-b]indole-5-carboxylate] |  |  | > 10000 |  |  | 
16 | CC(C)OC(=O)C1=CN(C(=O)c2cc(F)c(F)c(OCCN3CCOCC3)c2)CC(C)(C)c2c1[nH]c1ccccc21 [Example 179, 1-methylethyl 3-({3,4-difluoro-5-[(2-morpholin-4-ylethyl)oxy]phenyl}carbonyl)-1,1-dimethyl-1,2,3,6-tetrahydroazepino[4,5-b]indole-5-carboxylate] |  |  | 10 to 100 | > 100 |  | 
17 | CC(C)OC(=O)C1=CN(C(=O)c2cc(F)c(F)c(OCCN3CCCCC3)c2)CC(C)(C)c2c1[nH]c1ccccc21 [Example 180, 1-methylethyl 3-({3,4-difluoro-5-[(2-piperidin-1-ylethyl)oxy]phenyl}carbonyl)-1,1-dimethyl-1,2,3,6-tetrahydroazepino[4,5-b]indole-5-carboxylate] |  |  | 10 to 100 | > 100 |  | 
18 | CC(C)OC(=O)C1=CN(C(=O)c2ccc(OCCN3CCOCC3)cc2)CC(C)(C)c2c1[nH]c1ccccc21 [Example 181, 1-methylethyl 1,1-dimethyl-3-({4-[(2-morpholin-4-ylethyl)oxy]phenyl}carbonyl)-1,2,3,6-tetrahydroazepino[4,5-b]indole-5-carboxylate] |  |  |  |  | 1 to 10 (≈ 0.532 to 5.32 µg/mL) | 
19 | CC(C)OC(=O)C1=CN(C(=O)c2cccc(CN3CCN(C(=O)Nc4ccccc4)CC3)c2)CC(C)(C)c2c1[nH]c1ccccc21 [Example 184] |  |  | 10 to 100 | > 100 |  | 
20 | CCN(CC)CCCOc1cccc(C(=O)N2C=C(C(=O)OC(C)C)c3[nH]c4ccccc4c3C(C)(C)C2)c1 [Example 188, 1-methylethyl 3-[(3-{[3-(diethylamino)propyl]oxy}phenyl)carbonyl]-1,1-dimethyl-1,2,3,6-tetrahydroazepino[4,5-b]indole-5-carboxylate] |  |  | 1000 to 10000 | > 100 |  | 
21 | CC(COC(=O)c1ccc(F)c(F)c1)OC(=O)C1=CN(C(=O)c2ccc(F)c(F)c2)CC(C)(C)c2c1[nH]c1ccccc21 (stereo not shown) [Example 194, 2-{[(3,4-difluorophenyl)carbonyl]oxy}-1-methylethyl 3-[(3,4-difluorophenyl)carbonyl]-1,1-dimethyl-1,2,3,6-tetrahydroazepino[4,5-b]indole-5-carboxylate] |  |  | 10 to 100 | > 100 |  | 
22 | CC1(C)CN(C(=O)c2ccc(F)c(F)c2)C=C(C(=O)OCCOCc2ccccc2)c2[nH]c3ccccc3c21 [Example 195, 2-[(phenylmethyl)oxy]ethyl 3-[(3,4-difluorophenyl)carbonyl]-1,1-dimethyl-1,2,3,6-tetrahydroazepino[4,5-b]indole-5-carboxylate] |  |  | 100 to 1000 | > 100 |  | 
23 | C[C@]12CC[C@H]3[C@@H](CCC4=CC(=O)CC[C@@]43C)[C@@H]1CC[C@@H]2O [testosterone, reference compound] |  |  |  |  |  | ~330 (≈ 95.2 µg/mL)

Reference: patent US20090203577A1 (EXELIXIS, INC., priority 2005, published 2009)
